Experiment: Accelerated stability test for a novel crystalline form of Cabazitaxel
Assay type: physicochemical

## 4-acetoxy-2α-benzoyloxy-5β,20-epoxy-1-hydroxy-7β,10β-dimethoxy-9-oxo-11-taxadiene-13α-yl(2R,3S)-3-tert-butoxycarbonylamino-2-hydroxy-3-phenyl-propionate [crystalline form G of Cabazitaxel]
0 month
  Content (%): 99.4%
  Moisture (%): 1.92%
  The other maximum individual impurity (%): 0.05%
  Total impurity (%): 0.17%
1 month
  Content (%): 99.4%
  Moisture (%): 1.96%
  The other maximum individual impurity (%): 0.05%
  Total impurity (%): 0.16%
2 months
  Content (%): 99.4%
  Moisture (%): 1.99%
  The other maximum individual impurity (%): 0.05%
  Total impurity (%): 0.17%
3 months
  Content (%): 99.3%
  Moisture (%): 2.03%
  The other maximum individual impurity (%): 0.05%
  Total impurity (%): 0.16%
6 months
  Content (%): 99.1%
  Moisture (%): 2.09%
  The other maximum individual impurity (%): 0.05%
  Total impurity (%): 0.16%

## 4-acetoxy-2α-benzoyloxy-5β,20-epoxy-1-hydroxy-7β,10β-dimethoxy-9-oxo-11-taxadiene-13α-yl(2R,3S)-3-tert-butoxycarbonylamino-2-hydroxy-3-phenyl-propionate [crystalline form I of Cabazitaxel]
0 month
  Content (%): 99.7%
  Moisture (%): 0.45%
  The other maximum individual impurity (%): 0.06%
  Total impurity (%): 0.21%
1 month
  Content (%): 99.6%
  Moisture (%): 0.47%
  The other maximum individual impurity (%): 0.06%
  Total impurity (%): 0.20%
2 months
  Content (%): 99.7%
  Moisture (%): 0.50%
  The other maximum individual impurity (%): 0.05%
  Total impurity (%): 0.20%
3 months
  Content (%): 99.6%
  Moisture (%): 0.54%
  The other maximum individual impurity (%): 0.06%
  Total impurity (%): 0.21%
6 months
  Content (%): 99.5%
  Moisture (%): 0.51%
  The other maximum individual impurity (%): 0.06%
  Total impurity (%): 0.22%

## 4-acetoxy-2α-benzoyloxy-5β,20-epoxy-1-hydroxy-7β,10β-dimethoxy-9-oxo-11-taxadiene-13α-yl(2R,3S)-3-tert-butoxycarbonylamino-2-hydroxy-3-phenyl-propionate [crystalline form J of Cabazitaxel]
0 month
  Content (%): 99.8%
  Moisture (%): 0.40%
  The other maximum individual impurity (%): 0.08%
  Total impurity (%): 0.25%
1 month
  Content (%): 99.7%
  Moisture (%): 0.44%
  The other maximum individual impurity (%): 0.07%
  Total impurity (%): 0.25%
2 months
  Content (%): 99.6%
  Moisture (%): 0.46%
  The other maximum individual impurity (%): 0.07%
  Total impurity (%): 0.28%
3 months
  Content (%): 99.6%
  Moisture (%): 0.50%
  The other maximum individual impurity (%): 0.08%
  Total impurity (%): 0.26%
6 months
  Content (%): 99.5%
  Moisture (%): 0.48%
  The other maximum individual impurity (%): 0.08%
  Total impurity (%): 0.28%

— patent publication US9353076B2, “Crystal form of cabazitaxel and preparation method thereof” (Chongqing Taihao Pharmaceutical Co., Ltd., priority 2012, dated 2016)
